Reference: PubChem BioAssay AID266 (DTP/NCI, 2004)
Results filed as inconclusive are left out.

System: Nude mice, LX-1 lung xenograft intrarenal, tumor weight T/C
Test: NCI In Vivo Anticancer Drug Screen. Data for tumor model Human Lung LX-1 Xenograft (intrarenal inoculation) in NU/NU BALB/C (nude) mice
Conditions: endpoint: mean tumor weight change, higher = larger tumour
Experimental: The antitumor activity of compounds was measured in mice bearing transplantable tumors. Survival or tumor size were measured and the results are expressed as the measurement made in the treated group (T) divided by the measurement made in the vehicle treated control group (C). The tumor model used in this assay is Human Lung LX-1 Xenograft (intrarenal inoculation) in NU/NU BALB/C (nude) mice

[1] = dose: 300.0 mg/kg/injection, schedule: Q04DX003 (sc), vehicle: saline with Tween-80
[2] = dose: 600.0 mg/kg/injection, schedule: Q04DX003 (sc), vehicle: saline with Tween-80
[3] = dose: 1200.0 mg/kg/injection, schedule: Q04DX003 (sc), vehicle: saline with Tween-80
[4] = dose: 2400.0 mg/kg/injection, schedule: Q04DX003 (sc), vehicle: saline with Tween-80
[5] = dose: 37.5 mg/kg/injection, schedule: Q04DX003 (sc), vehicle: water
[6] = dose: 75.0 mg/kg/injection, schedule: Q04DX003 (sc), vehicle: water
[7] = dose: 300.0 mg/kg/injection, schedule: Q04DX003 (sc), vehicle: saline
[8] = dose: 600.0 mg/kg/injection, schedule: Q04DX003 (sc), vehicle: saline
[9] = dose: 1200.0 mg/kg/injection, schedule: Q04DX003 (sc), vehicle: saline
[10] = dose: 300.0 mg/kg/injection, schedule: Q04DX003 (sc), vehicle: Klucel (hydroxypropylcellulose) (HPC)
[11] = dose: 600.0 mg/kg/injection, schedule: Q04DX003 (sc), vehicle: Klucel (hydroxypropylcellulose) (HPC)
[12] = dose: 1200.0 mg/kg/injection, schedule: Q04DX003 (sc), vehicle: Klucel (hydroxypropylcellulose) (HPC)
[13] = dose: 2400.0 mg/kg/injection, schedule: Q04DX003 (sc), vehicle: Klucel (hydroxypropylcellulose) (HPC)

Cc1cc(=NO)cc(C)n1O
T/C (dose: 300.0 mg/kg/injection, schedule: Q04DX003 (sc), vehicle: distilled water + alcohol): 102 % of control | T/C (dose: 600.0 mg/kg/injection, schedule: Q04DX003 (sc), vehicle: distilled water + alcohol): 102 % of control | T/C (dose: 1200.0 mg/kg/injection, schedule: Q04DX003 (sc), vehicle: distilled water + alcohol): 60 % of control

CN(C)P(=O)(Oc1ccccc1)N(C)C
T/C (dose: 150.0 mg/kg/injection, schedule: Q04DX003 (sc), vehicle: saline with Tween-80): 99 % of control | T/C [1]: 111 % of control | T/C [2]: 72 % of control | T/C [3]: 83 % of control

N=c1c(C(=O)OCc2ccccc2)ncc(CCl)n1O
T/C [1]: 87 % of control | T/C [2]: 83 % of control | T/C [3]: 91 % of control | T/C [4]: 81 % of control

N=C(N)c1ccc(/C=C/c2ccc(C(=N)N)cc2O)cc1
T/C [5]: 86 % of control | T/C [6]: 56 % of control | T/C (dose: 150.0 mg/kg/injection, schedule: Q04DX003 (sc), vehicle: water): 101 % of control | T/C (dose: 300.0 mg/kg/injection, schedule: Q04DX003 (sc), vehicle: water): 43 % of control

CCCCCc1cc(/C=C2/N=C(c3ccc[nH]3)C=C2OC)[nH]c1C
T/C (dose: 8.0 mg/kg/injection, schedule: Q04DX003 (sc), vehicle: saline with Tween-80): 73 % of control | T/C (dose: 16.0 mg/kg/injection, schedule: Q04DX003 (sc), vehicle: saline with Tween-80): 54 % of control | T/C (dose: 32.0 mg/kg/injection, schedule: Q04DX003 (sc), vehicle: saline with Tween-80): 59 % of control | T/C (dose: 64.0 mg/kg/injection, schedule: Q04DX003 (sc), vehicle: saline with Tween-80): 67 % of control

Cc1ccc(S(=O)(=O)N/N=C/C(Br)=C(/Br)C(=O)O)cc1
T/C (dose: 1.25 mg/kg/injection, schedule: Q04DX003 (sc), vehicle: saline): 122 % of control | T/C (dose: 5.0 mg/kg/injection, schedule: Q04DX003 (sc), vehicle: saline): 115 % of control | T/C (dose: 10.0 mg/kg/injection, schedule: Q04DX003 (sc), vehicle: saline): 82 % of control

NC(CCl)=NCC12CC3CC(CC(C3)C1)C2
T/C (dose: 18.75 mg/kg/injection, schedule: Q04DX003 (sc), vehicle: Klucel (hydroxypropylcellulose) (HPC)): 157 % of control | T/C (dose: 75.0 mg/kg/injection, schedule: Q04DX003 (sc), vehicle: Klucel (hydroxypropylcellulose) (HPC)): 110 % of control

CC(=O)OCN(C)C=O
T/C (dose: 300.0 mg/kg/injection, schedule: Q01DX010 (sc), vehicle: water): 65 % of control | T/C (dose: 600.0 mg/kg/injection, schedule: Q01DX010 (sc), vehicle: water): 52 % of control | T/C (dose: 1200.0 mg/kg/injection, schedule: Q01DX010 (sc), vehicle: water): 40 % of control | T/C (dose: 2400.0 mg/kg/injection, schedule: Q01DX010 (sc), vehicle: water): 45 % of control

NC(=O)NO
T/C (dose: 200.0 mg/kg/injection, schedule: Q01DX010 (sc), vehicle: saline): 60 % of control | T/C (dose: 400.0 mg/kg/injection, schedule: Q01DX010 (sc), vehicle: saline): 105 % of control

CSc1cc(=O)n2c3ccccc3c3ccnc1c32
T/C (dose: 80.0 mg/kg/injection, schedule: Q04DX003 (sc), vehicle: saline with Tween-80): 56 % of control | T/C (dose: 160.0 mg/kg/injection, schedule: Q04DX003 (sc), vehicle: saline with Tween-80): 64 % of control | T/C (dose: 320.0 mg/kg/injection, schedule: Q04DX003 (sc), vehicle: saline with Tween-80): 107 % of control

CC(=O)OC1C(O)C(C)OC(OC2C(OC(=O)C3CCC4C(C3)OC3(CC(OC(=O)/C=C/c5ccccc5)C(C)CO3)C43CO3)OC(C)C(O)C2OC(C)=O)C1O (stereo not given)
T/C (dose: 37.5 mg/kg/injection, schedule: Q04DX003 (sc), vehicle: distilled water + Tween-80): 121 % of control | T/C (dose: 75.0 mg/kg/injection, schedule: Q04DX003 (sc), vehicle: distilled water + Tween-80): 63 % of control

Nc1ccn(C2OC(CO)C(O)C2O)c(=O)n1 (stereo not given)
T/C (dose: 15.63 mg/kg/injection, schedule: Q01DX010 (sc), vehicle: water): 56 % of control | T/C (dose: 31.25 mg/kg/injection, schedule: Q01DX010 (sc), vehicle: water): 91 % of control | T/C (dose: 62.5 mg/kg/injection, schedule: Q01DX010 (sc), vehicle: water): 55 % of control | T/C (dose: 125.0 mg/kg/injection, schedule: Q01DX010 (sc), vehicle: water): 2 % of control | T/C (dose: 500.0 mg/kg/injection, schedule: Q04DX003 (sc), vehicle: saline): 87 % of control | T/C (dose: 1000.0 mg/kg/injection, schedule: Q04DX003 (sc), vehicle: saline): 61 % of control

Nc1ncnc2c(C3OC(CO)C(O)C3O)[nH]nc12 (stereo not given)
T/C (dose: 75.0 mg/kg/injection, schedule: Q04DX003 (sc), vehicle: suspension in saline): 83 % of control | T/C (dose: 150.0 mg/kg/injection, schedule: Q04DX003 (sc), vehicle: suspension in saline): 37 % of control

C[C@]12C=CC(=O)C=C1CC[C@@H]1[C@@H]2[C@@H](O)C[C@@]2(C)[C@H]1CC[C@]2(O)C(=O)CO
T/C (dose: 50.0 mg/kg/injection, schedule: Q01DX010 (sc), vehicle: Klucel (hydroxypropylcellulose) (HPC)): 63 % of control

CCN(CC)CCOCCO
T/C (dose: 150.0 mg/kg/injection, schedule: Q04DX003 (sc), vehicle: saline): 109 % of control | T/C [7]: 105 % of control | T/C [8]: 86 % of control | T/C [9]: 77 % of control

CS(C)=O
T/C (dose: 750.0 mg/kg/injection, schedule: Q01DX010 (sc), vehicle: saline): 88 % of control | T/C (dose: 6000.0 mg/kg/injection, schedule: Q01DX010 (sc), vehicle: saline): 67 % of control

O=C1N[C@H]2[C@H](CS[C@H]2CCCCC(=O)N(CCP(c2ccccc2)c2ccccc2)CCP(c2ccccc2)c2ccccc2)N1
T/C [10]: 84 % of control | T/C [11]: 64 % of control | T/C [12]: 87 % of control | T/C [13]: 71 % of control

C/C(=N\NC(=S)N1CCN(c2ccccn2)CC1)c1ccccn1
T/C [5]: 106 % of control | T/C [6]: 102 % of control

CC(Oc1ccccc1-c1ccccc1)C(=O)N(C)C (stereo not given)
T/C [2]: 100 % of control | T/C [3]: 116 % of control | T/C [4]: 107 % of control

CN(C)c1nc(N(C)C)nc(N(C)C)n1
T/C (dose: 12.5 mg/kg/injection, schedule: Q01DX010 (sc), vehicle: saline with Tween-80): 63 % of control | T/C (dose: 25.0 mg/kg/injection, schedule: Q01DX010 (sc), vehicle: saline with Tween-80): 95 % of control | T/C (dose: 60.0 mg/kg/injection, schedule: Q01DX010 (sc), vehicle: saline with Tween-80): 51 % of control | T/C (dose: 100.0 mg/kg/injection, schedule: Q01DX010 (sc), vehicle: saline with Tween-80): 121 % of control | T/C (dose: 120.0 mg/kg/injection, schedule: Q01DX010 (sc), vehicle: saline with Tween-80): 58 % of control | T/C (dose: 200.0 mg/kg/injection, schedule: Q01DX010 (sc), vehicle: saline with Tween-80): 74 % of control

CNc1nc(N(C)C)nc(N(C)C)n1
T/C (dose: 30.0 mg/kg/injection, schedule: Q01DX010 (sc), vehicle: other): 169 % of control | T/C (dose: 60.0 mg/kg/injection, schedule: Q01DX010 (sc), vehicle: other): 29 % of control

CN(C)/N=N/c1nc[nH]c1C(N)=O
T/C (dose: 100.0 mg/kg/injection, schedule: Q04DX003 (sc), vehicle: Klucel (hydroxypropylcellulose) (HPC)): -25 % of control | T/C (dose: 200.0 mg/kg/injection, schedule: Q01DX010 (sc), vehicle: Klucel (hydroxypropylcellulose) (HPC)): 2 % of control | T/C (dose: 200.0 mg/kg/injection, schedule: Q04DX003 (sc), vehicle: Klucel (hydroxypropylcellulose) (HPC)): -43 % of control | T/C (dose: 400.0 mg/kg/injection, schedule: Q04DX003 (sc), vehicle: Klucel (hydroxypropylcellulose) (HPC)): -91 % of control | T/C (dose: 800.0 mg/kg/injection, schedule: Q04DX003 (sc), vehicle: Klucel (hydroxypropylcellulose) (HPC)): -100 % of control

N#CC(OC1OC(COC2OC(CO)C(O)C(O)C2O)C(O)C(O)C1O)c1ccccc1 (stereo not given)
T/C [7]: 162 % of control | T/C [8]: 115 % of control | T/C [9]: 193 % of control | T/C (dose: 2400.0 mg/kg/injection, schedule: Q04DX003 (sc), vehicle: saline): 158 % of control

COc1ccc2ccccc2c1C1NC(=O)c2ccccc2N1 (stereo not given)
T/C [10]: 113 % of control | T/C [11]: 78 % of control | T/C [12]: 83 % of control | T/C [13]: 83 % of control
